Consider `COc1cc(NC(C)=O)cc(OC)c1-c1ccc(C[C@H](NC(=O)c2c(Cl)cccc2Cl)C(=O)O)cc1`, for which the melting point (in general, the temperature of the solid-liquid transition) lay within 243 to 244 °C. For `c1ccc(C2OC3(CCNCC3)c3ccccc32)cc1` (stereo not drawn) the value was 99 to 107 °C; for `CN(O)C(=O)NC1CCCc2sccc21` (stereo not drawn), 98 to 102 °C; for `O=CC=Cc1cnn(-c2c(Cl)cc(C(F)(F)F)cc2Cl)n1`, 68 to 69 °C.

Compound `CCC(Oc1cccc(C(F)(F)F)c1Cl)C1=NCCN1` (stereo not drawn) gave a melting point of 102 to 103 °C.

The compound `CC(C)CC(NC(=O)OC(C)(C)C)C(O)c1ccccn1` (stereo not drawn) came in with a melting point of 83 to 84 °C. `CSC(CC(=O)O)c1ccc(C(F)(F)F)cc1` (stereo not drawn) registered a melting point of 106 to 108 °C.

Regarding `COc1ccc2c(CNCCCCCC(=O)O)cc3cc(OC)c(OC)cc3c2c1`, the melting point is 133 to 134 °C. The value for `COc1nc(OC)nc(OC(=O)c2cccc3cc(O)ccc23)n1` was 166 to 168 °C; that for `Cc1cc(C#N)cc(C(=O)Nc2ccc(Cl)cn2)n1` was 234 °C. The value for `O=C(NC(=O)c1c(F)cccc1Cl)Nc1ccc(C(F)(F)F)c(F)c1` was 200 °C. The value for `NC(=O)c1cccnc1Oc1cccc(Cl)c1` was 225 to 228 °C. In the case of `COc1ccc(-c2nc(CNc3ccccc3)nc3cc(OC)c(OC)cc23)cc1OC`, the melting point lay in the range of 199 to 200 °C. The value for `CCc1nc2c(O)cc(C(=O)N(C)C)cc2n1C` was 193 to 199 °C.

Compound `Cc1ccc(C(=O)c2c(O)c3cc(C)ccc3[nH]c2=S)cc1` yielded a melting point of 280 °C. `Fc1ccc(C(=C2SCSCS2)c2ccc(F)cc2)cc1`: the melting point fell in the range of 153 to 154 °C. Consider `COc1nc(NC(=O)NS(=O)(=O)c2ccccc2OCC#N)nn1C`, for which the melting point was 205 to 207 °C. The value for `CC(C)(C(=O)O)C1(Br)OC2=CC=CC2=CC1c1ccccc1` (stereo not drawn) was 183 to 196 °C; that for `C=C(C)C(=O)OCCOc1ccc(-c2cc(OC(=O)C(=C)C)cc(-c3ccc(OCCOC(=O)C(=C)C)cc3)c2)cc1` was 99 °C; that for `CCOC(=O)Oc1ccc(C(=O)Oc2ccc(C#N)cc2)cc1` was 145 °C.

`O=C(c1cc(-c2ccccc2)no1)C1CCCCC1N1CCCC1` (stereo not drawn) came in with a melting point of 109 to 111 °C. `CC(C)(Oc1ccc(Cc2ccccc2)cc1)C(=O)O`: the melting point came to 130 °C. The value for `N#Cc1c(F)cc(OCc2ccsc2)cc1OC(C(=O)O)c1ccccc1Cl` (racemic) was 152 to 153 °C; that for `CS(=O)(=O)Nc1ccc(OCCCI)cc1` was 109 to 111 °C; that for `Cc1nn(C)c(SCc2ccccc2)c1[N+](=O)[O-]` was 82 to 83 °C. The value for `CCOC(=O)Nc1ccc2c3c(n(CCCN(C)C)c2c1)CCCCCC3` was 119 to 123 °C; that for `O=C1NCCc2c(OCCCCl)cccc21` was 132 to 133 °C; that for `CC(=O)c1cc(C)ccc1OCCCN1CCC(c2noc3cc(F)ccc23)CC1` was 92 to 93 °C. The value for `CCC(C)(CC)c1nnc(NC(=O)c2ccccc2)s1` was 98 to 100 °C. In the case of `O=C(N1CCN(Cc2ccccc2)CC1)N1CC(Oc2ccc(Br)cc2)C1`, the melting point lay in the range of 133 to 135 °C. For `COc1cccc2c1OC(CO)CN2C(=O)OC(C)(C)C` (stereo not drawn) the value was 65 to 68 °C.

Compound `c1cc2[nH]ncc2nc1N1CCCCC1` had a melting point of 217 to 218 °C. For `CCc1cnc(C)c(C(=O)O)c1` the value was 218 to 220 °C; for `CCOC(=O)CNC(=O)Oc1c(CC)n(C)ccc1=O`, 99 to 100 °C. For `Fc1ccc(Nc2nc(Cl)nc(Cl)n2)cc1C(F)(F)F` the value was 114 to 117 °C; for `COCc1cnc2c(NC(=O)c3c(Cl)cccc3Cl)cccc2c1CCl`, 164 °C. The value for `COc1cc(COc2ncccc2CC(=O)O)ccc1OCc1nc(-c2ccccc2)oc1C` was 145 to 146 °C; that for `COC(=O)c1c(OC)ccc(OC)c1N=CN(C)C` was 81 to 83 °C; that for `Nc1cc(Br)cnc1CCCCNC1=NS(=O)N=C1NCc1ccncc1` (stereo not drawn) was 63 to 66 °C.

Turning to `NC(=O)c1c(N)sc2ccccc2c1=O`, the melting point fell in the range of 277 to 279 °C. For `Nc1cc(-n2cccc2)ccc1Nc1cccc(-c2ccccn2)c1`, the melting point lay in the range of 135 to 140 °C. `COC(=O)C=CC1=C(N)CCC1=O` yielded a melting point of 278 to 279 °C.

`O=C(O)CCc1ccnc(-c2nc(=O)c3ccccc3s2)c1`: the melting point was in the range of 215 to 216 °C. For `CCS(=O)(=O)c1cccnc1S(N)(=O)=O` the value was 211 to 212 °C; for `Cc1c(Br)ccc2c1oc1ccccc12`, 124 to 125 °C; for `CN(CCc1cn(C(=O)OCc2ccccc2)c2ccc([N+](=O)[O-])cc12)C(=O)C(F)(F)F`, 107 to 109 °C. For `FC(F)(F)c1cccc(-c2cc(C3CCNCC3)nnc2-c2ccncc2)c1` the value was 148 to 150 °C; for `Cc1noc(C)c1Cn1cc(NC(=O)c2scc(S(C)(=O)=O)c2Cl)cn1`, 202 to 204 °C. `N#CC(=NOS(=O)(=O)c1ccc(O)cc1)c1ccccc1` returned a melting point of 148 °C. The value for `c1ccc(Nc2ccc(-c3ccc(N(c4ccc(-c5ccccc5)cc4)c4ccc(-c5ccccc5)cc4)cc3)cc2)cc1` was 146 °C; that for `C=CCOc1ccc(OC)cc1C(=O)c1oc2ccc(Cl)cc2c1N` was 115 to 116 °C; that for `CC(CS)C(=O)N1c2ccccc2CCC1C(=O)O` (stereo not drawn) was 98 to 101 °C. For `COC(=O)c1ccc(S(=O)Cc2cccc(Cl)c2)cn1` (stereo not drawn) the value was 75 to 77 °C; for `CN1CCN(c2cccc3ccc(Nc4ccc([N+](=O)[O-])cc4[N+](=O)[O-])cc23)CC1`, 153 to 154 °C. The compound `CC(C)(C)OC(=O)c1ncn2c1[C@@H]1CCN1C(=O)c1c(Cl)cccc1-2` gave a melting point of 235 to 236 °C. For `Cc1c(C(=O)CN2CCCCC2)c(C)n(C)c1C(=O)c1ccc(Cl)cc1Cl` the value was 177 to 179 °C; for `NCC1CC1CCC(=O)Nc1ccc(NC(=O)CCC2CC2CN)c2c1C(=O)c1ccccc1C2=O` (stereo not drawn), 208 to 210 °C; for `COc1ccc(C(O)C(=O)c2ccccc2)cc1F` (stereo not drawn), 127 to 130 °C. For `COc1ccc(CNC2SC(=O)NC2=O)cc1` (stereo not drawn) the value was 140 to 142 °C; for `O=C(Cl)C=Cc1cccc([N+](=O)[O-])c1`, 81 to 83.5 °C; for `COc1ccc(C(=O)/C=C/c2c(-c3ccc(F)cc3)nc3sccn23)cc1OC`, 221 to 223 °C. For `Cc1cn(C(C)C(=O)N(C)C)nc1-c1ccc(Cl)s1` (stereo not drawn) the value was 112 to 114 °C; for `O=C(O)c1cnc(NC(=O)C(CC2CCCC2)c2ccc(Cl)c(Cl)c2)s1` (stereo not drawn), 269 to 270 °C; for `CC(C)(C)N1CN(c2ccccc2)C2=NN=CC2=C1N`, 174 to 176 °C.

In turn, `CCc1oc2ccccc2c1C(=O)c1ccc(OCCO)cc1` came in with a melting point of 78 to 83 °C. For `COc1cc(C(O)CN2CCC(C(c3ccccc3)c3ccccc3)CC2)on1` (stereo not drawn) the value was 121 to 126 °C; for `CCOC(=O)C(C)Oc1ccc(Sc2nnc3cc(Cl)ccc3n2)cc1` (stereo not drawn), 86 to 88 °C; for `O=Cc1c[nH]cc1-c1ccccc1Cl`, 147 to 148 °C. In turn, `CC(=O)N(C)c1cc2c(nc(C)n2C)c(O)c1CCC(=O)c1ccccc1` gave a melting point of 249 to 251 °C. In turn, `O=C(NCC12CC3CC(CC(C3)C1)C2)c1cccc([N+](=O)[O-])c1Cl` returned a melting point of 185 °C. For `CC(=O)c1c(N2CCCC2)nn2ccccc12` the value was 59.5 to 60 °C. The value for `COC(=O)c1cc(C(O)(C(F)(F)F)C(F)(F)F)ccc1NS(C)(=O)=O` was 147 to 148 °C; that for `Cc1ccc(-c2ccc3c(=O)ccoc3c2)cc1` was 159 to 160 °C; that for `CCc1cc(C#N)cc(C)c1CC(=O)OC` was 65 to 72 °C.

As for `O=C1c2cccc(Sc3ccccc3)c2C(=O)c2cccc(Nc3ccc([N+](=O)[O-])cc3)c21`, the melting point was in the range of 242 to 244 °C. Regarding `Cn1cnnc1NCCCOc1cccc(CN2CCCCC2)c1`, the melting point fell in the range of 118 to 119 °C.

For the compound `CCCC(=O)c1c[nH]c(=O)[nH]1`, the melting point is 268 to 270 °C. The value for `CN1CCC(c2[nH]c(=O)c3ccccc3c2-c2ccccc2F)CC1` was 247 to 249 °C; that for `CC(C(=O)O)c1ccc2c(c1)CCc1ccccc1C2=O` (stereo not drawn) was 122 °C; that for `C[N+]([O-])=C(Cn1ccnc1)c1ccco1` was 120 to 123 °C.

In turn, `CS(=O)(=O)c1c(F)nc(F)nc1F` returned a melting point of 103 to 105 °C.

`O=S(=O)(c1ccccc1)N1CCC(Nc2nc(OCC(F)(F)F)nc(-n3ccnc3)n2)CC1` gave a melting point of 201 to 203 °C. For `CC1Cc2c(N3CCCC3CO)c(F)cc3c(=O)c(C(=O)O)cn1c23` (stereo not drawn) the value was 235 to 237 °C; for `COc1ccc(C2=NNC(=O)CC2)cc1N`, 218 to 220 °C. Compound `CSc1ccc(-n2cnc(-c3ccc(F)cc3)c2-c2ccncc2)cc1` showed a melting point of 172 to 173 °C. For `O=C1CCCN(C(=O)Cc2ccccc2)C(=O)CCc2cc(Cl)ccc21` the value was 178 to 180 °C; for `Cc1ccccc1Nc1nc2ccc(CC(=O)O)cc2o1`, 199 to 200 °C. `CC(C)(C#N)C(O)(CCc1ccc(F)cc1)Cn1cncn1` (stereo not drawn) gave a melting point of 152 to 154 °C. `CC(C)(COCc1cccc(Oc2ccccc2)c1)c1ccccc1C(=O)O` gave a melting point of 98.5 to 102 °C.

On to `Cc1ccc(S(F)(F)(F)(F)F)cc1[N+](=O)[O-]`, for which the melting point was 29 to 30 °C.

`COc1ccc(-c2cccc(C3=CCC(OC(Cc4ccccc4)C(=O)O)(c4c(Cc5ccccc5)oc5ccccc45)C=C3)c2)cc1` (stereo not drawn) displayed a melting point of 73 to 75 °C.

As for `CCCc1c(OCCCOc2ccc3ccc(OCC(=O)O)cc3c2C(C)=O)ccc(C(C)=O)c1O`, the melting point lay within 140 to 141 °C. The value for `COc1ccc(S(=O)(=O)C(C)(Cc2ccc(Br)cc2)C(=O)NO)cc1` (stereo not drawn) was 86 to 88 °C.

These data come from a melting point compilation (Tetko et al.; mined from patent text by program, amines drawn as free bases though some values may be those of a salt).
